The subject of data set [1] is Schistosoma mansoni. In words: Antischistosomal activity against Schistosoma mansoni couples assessed as decrease in pairing stability at 5 uM measured upto 72 hrs by bright field microscopy. It counts as functional. Set-up: scale not given: the % may be the effect or the level left.
The test system of data set [2] is HepG2. In words: Cytotoxicity against human HepG2 cells assessed as reduction in cell vaibility at 100 uM by WST-1 assay. The note with it: hepg2, 100 µM. It counts as toxicity, cell-based. (Formazan colour is commonly taken as a measure of viable cells.)
For data set [3], the system named is Schistosoma mansoni. The data set is described as follows: Antischistosomal activity against Schistosoma mansoni couples at 100 uM measured upto 72 hrs by bright field microscopy. It counts as functional, organism-based.
For data set [4], the system named is Schistosoma mansoni. In words: Antischistosomal activity against Schistosoma mansoni couples assessed as edematous swelling of gut at 25 uM measured upto 72 hrs by bright field microscopy. It counts as functional, organism-based.
Data set [5] concerns Schistosoma mansoni. In words: Antischistosomal activity against Schistosoma mansoni couples assessed as decrease in parasite motility at 25 uM measured upto 72 hrs by bright field microscopy. The format is functional. Set-up: scale not given: the % may be the effect or the level left.
Data set [6] deals with Schistosoma mansoni. In words: Antischistosomal activity against Schistosoma mansoni couples assessed as decrease in parasite vitality at 10 uM measured upto 72 hrs by bright field microscopy. The format is functional.
Data set [7] has as its system HepG2. The data set is described as follows: Cytotoxicity against human HepG2 cells assessed as reduction in cell vaibility at 25 uM by WST-1 assay. It counts as toxicity, cell-based. Particulars: hepg2, 25 µM.
For data set [8], the system named is LS174T. The data set is described as follows: Cytotoxicity against human LS174T cells assessed as reduction in cell viability at 100 uM by WST-1 assay. The format is toxicity, cell-based.
The subject of data set [9] is LS174T. The data set is described as follows: Cytotoxicity against human LS174T cells assessed as reduction in cell vaibility at 25 uM by WST-1 assay. The format is toxicity, cell-based.
In data set [10] the test system is Schistosoma mansoni. The data set is described as follows: Antischistosomal activity against Schistosoma mansoni couples assessed as dead worms at 25 uM measured upto 72 hrs by bright field microscopy. The format is functional.
Data set [11] has as its system Schistosoma mansoni. The data set is described as follows: Antischistosomal activity against Schistosoma mansoni couples assessed as inhibition of eggs production at 10 uM measured upto 72 hrs by bright field microscopy. It counts as functional, organism-based.
Data set [12] concerns Schistosoma mansoni. The data set is described as follows: Antischistosomal activity against Schistosoma mansoni couples assessed as reduction in pairing stability at 10 uM measured upto 72 hrs by bright field microscopy. The format is functional, organism-based.
The test system of data set [13] is Schistosoma mansoni. The data set is described as follows: Antischistosomal activity against Schistosoma mansoni couples assessed as decrease in parasite motility at 10 uM measured upto 72 hrs by bright field microscopy. The format is functional, organism-based.
For data set [14], the system named is Schistosoma mansoni. The data set is described as follows: Antischistosomal activity against Schistosoma mansoni couples assessed as inhibition of eggs production at 5 uM measured upto 72 hrs by bright field microscopy. The format is functional. Further details: scale not given: the % may be the effect or the level left.
In data set [15] the test system is Schistosoma mansoni. In words: Antischistosomal activity against Schistosoma mansoni couples assessed as detachment of worms from culture dish at 100 uM measured upto 72 hrs by bright field microscopy. The format is functional, organism-based.
The test system of data set [16] is Schistosoma mansoni. In words: Antischistosomal activity against Schistosoma mansoni couples assessed as gut dilations at 50 uM measured upto 72 hrs by bright field microscopy. The format is functional, organism-based.
Data set [17] relates to Schistosoma mansoni. In words: Antischistosomal activity against Schistosoma mansoni couples assessed as gut dilations at 100 uM measured upto 72 hrs by bright field microscopy. It counts as functional, organism-based.
The test system of data set [18] is Schistosoma mansoni. In words: Antischistosomal activity against Schistosoma mansoni couples assessed as decrease in parasite motility at 50 uM measured upto 72 hrs by bright field microscopy. Set-up: scale not given: the % may be the effect or the level left. The format is functional.
Data set [19] deals with Schistosoma mansoni. The data set is described as follows: Antischistosomal activity against Schistosoma mansoni couples assessed as decrease in parasite motility at 100 uM measured upto 72 hrs by bright field microscopy. The format is functional. Set-up: scale not given: the % may be the effect or the level left.
Data set [20] has as its system Schistosoma mansoni. The data set is described as follows: Antischistosomal activity against Schistosoma mansoni couples assessed as gut dilations at 25 uM measured upto 72 hrs by bright field microscopy. It counts as functional, organism-based.
For data set [21], the system named is Schistosoma mansoni. In words: Antischistosomal activity against Schistosoma mansoni couples assessed as reduction in pairing stability at 25 uM measured upto 72 hrs by bright field microscopy. It counts as functional.
Data set [22] relates to Schistosoma mansoni. The data set is described as follows: Antischistosomal activity against Schistosoma mansoni couples assessed as tegument damage at 25 uM measured upto 72 hrs by bright field microscopy. It counts as functional, organism-based.
For data set [23], the system named is Schistosoma mansoni. The data set is described as follows: Antischistosomal activity against Schistosoma mansoni couples assessed as intestinal dilations and tegument damage at 50 uM measured upto 72 hrs by bright field microscopy. The format is functional, organism-based.
For data set [24], the system named is Schistosoma mansoni. In words: Antischistosomal activity against Schistosoma mansoni couples assessed as tegument damage at 50 uM measured upto 72 hrs by bright field microscopy. The format is functional, organism-based.
The subject of data set [25] is Schistosoma mansoni. The data set is described as follows: Antischistosomal activity against Schistosoma mansoni couples assessed as intestinal dilations and tegument damage at 25 uM measured upto 72 hrs by bright field microscopy. It counts as functional, organism-based.
Data set [26] has as its system Schistosoma mansoni. The data set is described as follows: Antischistosomal activity against Schistosoma mansoni couples assessed as reduction in pairing stability at 50 uM measured upto 72 hrs by bright field microscopy. It counts as functional, organism-based.
Data set [27] concerns Schistosoma mansoni. In words: Antischistosomal activity against Schistosoma mansoni couples assessed as inhibition of eggs production at 25 uM measured upto 72 hrs by bright field microscopy. It counts as functional.
Data set [28] relates to Schistosoma mansoni. The data set is described as follows: Antischistosomal activity against Schistosoma mansoni couples assessed as decrease in parasite vitality at 5 uM measured upto 72 hrs by bright field microscopy. The format is functional, organism-based.
In data set [29] the test system is Schistosoma mansoni. In words: Antischistosomal activity against Schistosoma mansoni couples assessed as inhibition of eggs production at 50 uM measured upto 72 hrs by bright field microscopy. It counts as functional, organism-based.
Data set [30] deals with Schistosoma mansoni. In words: Antischistosomal activity against Schistosoma mansoni couples assessed as tegument damage at 100 uM measured upto 72 hrs by bright field microscopy. It counts as functional, organism-based.
For data set [31], the system named is LS174T. The data set is described as follows: Cytotoxicity against human LS174T cells assessed as reduction in cell vaibility at 50 uM by WST-1 assay. The format is toxicity, cell-based.
The test system of data set [32] is HepG2. The data set is described as follows: Cytotoxicity against human HepG2 cells assessed as reduction in cell vaibility at 50 uM by WST-1 assay. It counts as toxicity, cell-based. The note with it: hepg2, 50 µM.
Data set [33] relates to LS174T. The data set is described as follows: Cytotoxicity against human LS174T cells assessed as reduction in cell vaibility upto 100 uM by WST-1 assay. The format is toxicity, cell-based.
Data set [34] has as its system HepG2. The data set is described as follows: Cytotoxicity against human HepG2 cells assessed as reduction in cell viability upto 100 uM by WST-1 assay. The note with it: hepg2, 100 µM. The format is toxicity, cell-based.
The subject of data set [35] is Schistosoma mansoni. The data set is described as follows: Antischistosomal activity against Schistosoma mansoni couples assessed as pairing instability at 50 uM measured upto 72 hrs by bright field microscopy. The format is functional.
The test system of data set [36] is Schistosoma mansoni. The data set is described as follows: Antischistosomal activity against Schistosoma mansoni couples assessed as tegument damage upto 100 uM measured upto 72 hrs by bright field microscopy. The format is functional, organism-based.
Data set [37] concerns Schistosoma mansoni. In words: Antischistosomal activity against Schistosoma mansoni couples assessed as tegument damage at <=50 uM measured upto 72 hrs by bright field microscopy. The format is functional, organism-based.
Data set [38] concerns Schistosoma mansoni. The data set is described as follows: Antischistosomal activity against Schistosoma mansoni couples assessed as eggs deformation at 100 uM measured upto 72 hrs by bright field microscopy. It counts as functional.
For data set [39], the system named is Schistosoma mansoni. The data set is described as follows: Antischistosomal activity against Schistosoma mansoni couples assessed as reduction in parasite motility at <=50 uM measured upto 72 hrs by bright field microscopy. It counts as functional, organism-based.
In data set [40] the test system is Schistosoma mansoni. The data set is described as follows: Antischistosomal activity against Schistosoma mansoni couples assessed as reduction in pairing stability at 100 uM measured upto 72 hrs by bright field microscopy. The format is functional.

The source made the active and inactive calls. The rule behind the calls is not given here. Where only a bound is given, the exact number is not on record here.

For the compound `Cl.O=C([C@@H]1CCCN1)N1CCN(C(=S)SCc2ccc([N+](=O)[O-])cc2)CC1`, the Activity in the data set with Schistosoma mansoni [1] is approximately 80%; with HepG2 [2], “Toxic”; in the data set on Schistosoma mansoni [5], 65%; with HepG2 [7], “Toxic”; with LS174T [8] it was “Toxic”; in the data set with LS174T [9], “Toxic”. The Activity entry with Schistosoma mansoni [10] was “<=25%”; in the data set on Schistosoma mansoni [14], approximately 80%. Further, the outcome in the data set on Schistosoma mansoni [3], in the data set with Schistosoma mansoni [4], in the data set on Schistosoma mansoni [6], in the data set with Schistosoma mansoni [11] and with Schistosoma mansoni [12] was Active. For the same compound, the outcome in the data set on Schistosoma mansoni [13] was inactive.
In the case of `S=C(SCc1ccccc1)N1CCSCC1`, the Activity result in the data set on HepG2 [2] is on record as “Non-Toxic”; in the data set on LS174T [8], “Non-Toxic”; in the data set on Schistosoma mansoni [18], approximately 45%; with Schistosoma mansoni [19], 45%. The outcome in the data set with Schistosoma mansoni [15], with Schistosoma mansoni [16] and in the data set on Schistosoma mansoni [17] was Active.
`S=C(SCc1ccccc1)N1CCSC1`: the outcome in the data set on Schistosoma mansoni [15] was Active.
As to `CCN(CC)C(=S)SCc1ccc([N+](=O)[O-])cc1`, the outcome in the data set on Schistosoma mansoni [1], in the data set on Schistosoma mansoni [20], in the data set with Schistosoma mansoni [21], in the data set with Schistosoma mansoni [22], in the data set with Schistosoma mansoni [23] and in the data set with Schistosoma mansoni [24] was Active. In addition, the outcome in the data set with Schistosoma mansoni [16], in the data set on Schistosoma mansoni [25], in the data set with Schistosoma mansoni [26], in the data set on Schistosoma mansoni [13], in the data set with Schistosoma mansoni [27] and in the data set with Schistosoma mansoni [28] was Active. The result in the data set on Schistosoma mansoni [14] and in the data set with Schistosoma mansoni [29] was Active.
On to `Cl.S=C(SCc1ccccc1)N1CCNCC1`, for which the result in the data set with Schistosoma mansoni [30] and with Schistosoma mansoni [17] was Active. Also, the Activity entry is given as “Toxic” in the data set on LS174T [31], “Toxic” with HepG2 [32], approximately 35% in the data set with Schistosoma mansoni [18] and “>=55%” in the data set with Schistosoma mansoni [19].
For `CCN(CC)C(=S)SCCC1SCCCS1`, the Activity entry was “Non-Toxic” with LS174T [33], “Non-Toxic” with HepG2 [34], 0% with Schistosoma mansoni [35] and less than 40% in the data set on Schistosoma mansoni [19]. For the same compound, the outcome with Schistosoma mansoni [18] and in the data set with Schistosoma mansoni [36] was Active.
As for `CCCN(CCC)C(=S)SCc1ccccc1`, the result in the data set on Schistosoma mansoni [30], in the data set with Schistosoma mansoni [38] and in the data set with Schistosoma mansoni [40] was Active. Further, the result with Schistosoma mansoni [37] and in the data set with Schistosoma mansoni [39] was inactive. Further, the Activity in the data set with Schistosoma mansoni [19] was approximately 40%.

The record behind these values is ChEMBL document CHEMBL5331046, “Disulfiram and dithiocarbamate analogues demonstrate promising antischistosomal effects” (Eur J Med Chem, 2022).
